Source: a melting point compilation (Tetko et al.; mined from patent text by program, amines drawn as free bases though some values may be those of a salt)

Compound	melting point
CCCCN(CCCC)c1ccc(C=CC=CC=CC2=C(C#N)C(=C(C#N)C#N)OC2(C)C)c(OC)c1	156 to 160 °C
OC(CCl)COc1ccccc1OCC(O)CCl (stereo unspecified)	64 to 66 °C
N#CCc1ccc2onc(-c3ccc(Cl)cc3)c2c1	118 °C
O=C(C=Cc1ccc(CN(CCO)C2CCCCC2)cc1)Nc1ccc(-c2ccc(Cl)cc2)cc1	178 to 179 °C
CN(C(=S)Oc1ccc(Cl)c(C(C)(C)C)c1)c1ccccc1	65 to 67 °C
C=CCc1c(O)c(=O)[nH]c2cc(Cl)ccc2c1=O	172 to 174 °C
Fc1ccc(Nc2nc(NCc3ccc(Cl)nc3)nc(NN=Cc3ccc(OC(F)(F)F)cc3)n2)cc1C(F)(F)F	117 to 125 °C
FC(F)(F)c1ccccc1N=C1CCCc2cc3c(nc21)C(=Nc1ccccc1C(F)(F)F)CCC3	162 to 164 °C
CP1(=O)c2ccccc2CN1c1ccccc1 (stereo unspecified)	94 to 97 °C
Nc1ccc(Sc2c(NCc3ccccc3)cc(C(=O)O)cc2S(N)(=O)=O)cc1	254 to 256 °C
CN1CCC23c4c5ccc(O[Si](C)(C)C(C)(C)C)c4OC2C(O[Si](C)(C)C(C)(C)C)C=CC3C1C5 (stereo unspecified)	118 to 119 °C
C=CC(c1ncc([N+](=O)[O-])n1C)N(C)C (stereo unspecified)	110 to 113 °C
CCN1CNS(=O)(=O)c2sc(Cl)cc21	119 to 120 °C
CCN1CCCC(NC(=O)c2ccccc2Nc2ccnc3c(C(F)(F)F)cccc23)C1 (stereo unspecified)	212 to 213 °C
NS(=O)(=O)c1cc2[nH]c(CCc3ccccc3)nc2cc1Cl	226 to 228 °C
O=C(c1ccccc1)c1ccc(S)cc1	72 to 75 °C
COc1cc(OCCO)c([N+](=O)[O-])cc1[N+](=O)[O-]	137 to 140 °C
FC(F)(F)c1cccc(-c2cc(C(F)(F)F)n3ncc(-c4ccncc4)c3n2)c1	241 °C
N#Cc1c(N2CCNCC2)c2cc(F)ccc2n(Cc2ccccc2)c1=O	162 °C
Nc1cc(OCc2ccccc2)c(OCc2ccccc2)cn1	111 to 113 °C
COc1ccc2[nH]cc(CCN=c3sc4ccccc4s3)c2c1	139 to 140 °C
C/C(O)=C(\C#N)C(=O)Sc1ccc(Cl)cc1	91 to 94 °C
N#CCCn1cccc1C1=CC(=O)c2ncccc2C1=O	166 to 167 °C
O=c1oc2c(c(O)c1C(c1ccccc1)C1CC1)CCCCCCCCCC2 (stereo unspecified)	97.8 to 99 °C
Cn1cncc1-c1c(C(CC#N)c2ccc(Cl)cc2)ccc2c1c(-c1cccc(Cl)c1)cc(=O)n2C (stereo unspecified)	151 °C
Fc1ccc(-n2c3c(c4cc(F)ccc42)CNCC3)cc1	126 to 129 °C
CN(C=O)CC1(N(C)C)CCCCC1	59 to 60 °C
COC(=O)C1=C(C(=O)OC)C2(c3ccc(Cl)cc3Cl)CCC1O2 (stereo unspecified)	78 °C

Compound	melting point
CCc1ccc(C2CCCN2S(=O)(=O)c2ccc(Cl)cc2)cc1 (racemic)	94 °C
CN1C(=O)CNC(c2cccc(Cl)c2)c2cc(C(O)(c3ccc(Cl)cc3)c3cncn3C)ccc21 (stereo unspecified)	208 °C
O=C(NCC1CCCCC1)[C@@H]1CCCN(c2cccc3c2C(=O)N(Cc2ccncc2)C3=O)C1	172 to 173 °C
CCSc1ccc(-c2coc3ccc(-c4nnc(C)o4)cc23)cc1	144 to 145 °C
O=C(Nc1ccccc1)O[C@@H]1CN=C(c2ccccc2)O[C@H]1c1ccccc1 (racemic)	111 °C
CN1C(=O)CC[C@]2(C)c3ccc(-c4cc(C(F)(F)F)cc(C(F)(F)F)c4)cc3CC[C@@H]12	110 to 112 °C
O=S(=O)(c1ccccc1)N1CCC(C(Nc2ccc(F)cc2)c2ccc(F)cc2)CC1 (stereo unspecified)	175 to 176 °C
CC(C)CCCC(C)CCCC(C)CCCC(C)CCP(=O)(O)O (stereo unspecified)	69 to 72 °C
CC1(C)C=C(N2Cc3ccccc3C2=O)c2cc(S(=O)(=O)C(F)(F)C(F)(F)C(F)(F)F)ccc2O1	164 to 166 °C
C=CCNC(=O)NC(CCC)(CCC)CCC	66 °C
Oc1nc(O)c2occc2n1	233 °C
O=P(O)(O)C(O)(CC1(c2ccc(Cl)cc2)C=CN(c2ccccc2)N1)P(=O)(O)O (stereo unspecified)	199 °C
COC[C@@H]1Cc2ccccc2N1S(=O)(=O)c1ccc2c(c1)C(=O)C1=NCC(C)(C)CN12	173 to 175 °C
Cc1ccc(C#N)c2c([N+](=O)[O-])ccc(Cl)c12	179 to 180 °C
CC(CN1C(=O)C2(COc3cc4c(cc32)CCO4)c2ccccc21)OCOCc1ccccc1 (stereo unspecified)	49 to 52 °C
COC(=O)c1sc(Cl)cc1N	99 to 101 °C
Clc1nc(Cl)nc(C2CC2)n1	106 to 107 °C
CC(=O)N(C)c1c(C(=O)C2CCCCC2)[nH]c2cc(Cl)ccc12	162 to 163 °C
COc1cccc2c(Nc3ccccc3C)c(C(=O)C3CCCCC3)cnc12	115 to 117 °C
O=C(OCC1CCC1)c1ncc2n1-c1cccc(Br)c1C(=O)N1CCC[C@@H]21	170 to 172 °C
COC(=O)[C@@]1(O)C[C@@H](OC(=O)c2ccccc2)[C@@H]2OC(C)(C)O[C@@H]2C1	109 to 110 °C
CCOC(=O)N1CCCC2(OCCO2)C1Cc1c[nH]c2ccccc12 (stereo unspecified)	122 to 125 °C
C=C(CCC(C)C1CCC2C3=C(C(=O)CC21C)C1(C)CCC(=O)C(C)C1CC3)C(C)C(=O)OC (stereo unspecified)	100 to 102 °C
O=C(O)CN(CC(=O)O)CC(CCc1ccc([N+](=O)[O-])cc1)N(CC(=O)O)CC(=O)O (stereo unspecified)	188 to 189 °C
N#CN1C2CCC1CC(c1n[nH]c3cc(F)ccc13)C2 (stereo unspecified)	182 to 184 °C
O=C1CCCc2nc3ccccc3c(NCCCC(c3ccccc3)c3ccccc3)c21	86 to 88 °C
N#Cc1ccc(NCc2cc3c(cc2O)CCCO3)cc1	162 to 164 °C

The remaining lines, values ahead:

melting point	Compound
163 to 167 °C	Cc1oncc1C(=O)Nc1ccc(-n2nc(C(F)(F)F)cc2C(F)(F)F)cc1
137 to 138 °C	CC(C)(C)C(=O)c1ccc(C(=O)NC(=O)CCc2ccccc2)cc1
151 to 152 °C	O=C(NO)c1ccc(CNC(=O)c2[nH]c(-c3cccs3)cc2-c2ccc(F)cc2)nc1
112 °C	COc1ccc2ccccc2c1CONC(C)=O
228 to 231 °C	CCC1CCSc2ccc(Nc3ncc(Cl)c(Nc4ccccc4C(=O)NC)n3)nc2C1 (stereo unspecified)
136 to 137 °C	Cc1cc(C)cc(Sc2c(C(C)C)c(=O)[nH]c(=O)n2CC2=CC(CO)C(CO)C2)c1 (stereo unspecified)
204 to 206 °C	CCC(CC)c1ccc(Cl)c2nc3n(c12)CC(C)N3c1cnc(N(C)C)cc1C (stereo unspecified)
163 to 166 °C	COc1ccc(-c2cc3ccc(OC)cc3n2C)cc1
215 to 222 °C	Cc1nnc2c(Cl)nc3ccccc3n12
342 °C	O=C(Nc1ccccc1)c1ccc(C(=O)Nc2nnc(-c3cc(Cl)cc(Cl)c3O)s2)cc1
125 to 127 °C	CCOC(=O)/C=C/c1cnc(Cl)nc1
160 to 161 °C	O=C(Nc1ccc(-n2nc(C(F)(F)F)cc2C(F)(F)F)cc1)c1c(Cl)ccc([N+](=O)[O-])c1Cl
130 to 131 °C	COCCOc1ccc(CC(C)C(=O)O)c(Oc2ncc(C(F)(F)F)cc2Cl)c1 (stereo unspecified)
242 to 246 °C	CCn1cc(C(=O)O)c(=O)c2cc(F)c(-c3csc(CNC)n3)c(O)c21
129 to 131 °C	Cc1nc(-c2ccccc2)nc(-c2cccc([N+](=O)[O-])c2)c1C(=O)NCN1CCN(C)CC1
52 to 54 °C	COC(=O)Cc1c(C(=O)OC)ccn1CCO
146 to 150 °C	CCCCC(=O)Nc1ccc(Oc2ncc(Cl)cn2)c(C)c1
63 to 65 °C	CCOC(=O)c1c(C)nc(N2CCN(C)CC2)c2nnn(CC)c12
130 to 132 °C	CCOC(=O)C(C)OCc1cc2cc(C(F)(F)F)ccc2n1S(=O)(=O)c1cc(OC)ccc1OC (stereo unspecified)
61 °C	COC(=O)c1ccc2c(c1)N(C(=O)N1CCC(c3cccnc3)C1)CCO2 (stereo unspecified)
68 to 70 °C	CCCn1nnn(-c2cc(OC(C)C)c(CBr)cc2Cl)c1=O

melting point	Compound
95 to 105 °C	CCNC(=O)c1cccc(F)c1Nc1nc(Nc2cc3c(cc2OC)CCN(CC(=O)N(C)C)CC3)ncc1Cl
67 to 70 °C	Cc1ccc2c(cc(CCCC(=O)O)n2S(=O)(=O)c2ccc3ncsc3c2)n1
256 to 258 °C	Cc1ncn(-c2nccc3[nH]c(=O)ccc23)c1C
250 to 251 °C	Cc1cc(-c2ccc(Cl)cc2)nc2c(C(=O)Nc3cccc(S(C)(=O)=O)c3)cnn12
88 °C	CCOC(=O)c1ccc(CCNS(=O)(=O)c2ccc(Cl)cc2)cc1
117 to 118 °C	CCOc1ccc(CNC(=O)C(=O)NCCc2ccccn2)c(OC)c1
146 to 148 °C	COc1ccccc1N1CCN(CCc2c(C)c3ccc(OC)c(OC)c3oc2=O)CC1
233 to 234 °C	CCCc1c(OCc2cccn3c(=O)c(C#N)cnc23)ccc(C(C)=O)c1O
175 to 177 °C	CCOC(=O)c1cnn(C)c1C(=O)Nc1ccn2nc(C(C)C)nc2c1
191 °C	CC(C)(C)OC(=O)CN(C(=O)CNC(=O)Nc1cnc2ccccc2c1)c1ccccc1
240 to 241 °C	O=C(O)c1cnc(S)n1Cc1cc(F)cc(F)c1
189 to 191 °C	Cc1cc2cc(CN3CCC(CCC(=O)N4CCCCC4)CC3)cnc2cc1NC(=O)c1ccc(-c2ccc(F)cc2)cc1
194 to 196 °C	Cc1ccc2nc(-c3cccnc3N)n(-c3ccc(CC(=O)c4ccccc4)cc3)c2n1
70 to 72 °C	CCC(C)c1ccc(-n2c(-c3cc(C)c(OCCO)c(C)c3)nc3ccc(F)cc3c2=O)cc1 (stereo unspecified)
115 °C	COc1cccnc1C(=O)NCCNC(=O)OC(C)(C)C
152 to 154 °C	CCC(CC)Nc1cc(C)nc(Oc2c(C)cc(C)cc2C)c1NC(=O)CCl
148 to 149 °C	Cc1cc(Cl)c(C(=O)c2cc(C)c(C)cc2Cl)cc1C
159 to 161 °C	CC(=O)c1cc(C(C)(C)C)cc(C(=O)O)c1O
260 to 261 °C	CC(=O)Nc1c(C(=O)c2ccccc2)[nH]c2ccc(NS(C)(=O)=O)cc12
157 to 159 °C	CCOC(=O)c1[nH]cc(-c2ccc(F)cc2)c1-c1ccc(F)cc1
